According to US9617244B2, “Antibacterial quinoline derivatives” (JANSSEN PHARMACEUTICA NV, priority 2012, dated 2017):
Values after ≈ are worked out from the molar mass of the structure shown.

system: Mycobacterium smegmatis (ATCC607); assay: In-vitro anti-bacterial activity against strain M. Smegmatis ATCC607; assay type: cell-based; settings: 90% inhibitory concentration for bacterial growth, 48 hours, Alamar Blue fluorescence
Experimental: D.1. In-Vitro Method for Testing Compounds for Anti-Bacterial Activity Against Strain M. Smegmatis ATCC607
Flat-bottom, sterile 96-well plastic microtiter plates were filled with 180 μl of sterile deionized water, supplemented with 0.25% BSA. Subsequently, stock solutions (7.8× final test concentration) of compounds were added in 45 μl volumes to a series of duplicate wells in column 2 so as to allow evaluation of their effects on bacterial growth. Serial five-fold dilutions (45 μl in 180 μl) were made directly in the microtiter plates from column 2 to 11 using a customised robot system (Zymark Corp., Hopkinton, Mass.). Pipette tips were changed after every 3 dilutions to minimize pipetting errors with high hydrophobic compounds. Untreated control samples with (column 1) and without (column 12) inoculum were included in each microtiter plate. Approximately 250 CFU per well of bacteria inoculum, in a volume of 100 μl in 2.8× Mueller-Hinton broth medium, was added to the rows A to H, except column 12. The same volume of broth medium without inoculum was added to column 12 in row A to H. The cultures were incubated at 37° C. for 48 hours in a humidified 5% CO2 atmosphere (incubator with open air valve and continuous ventilation). At the end of incubation, two days after inoculation, the bacterial growth was quantitated fluorometrically. Therefore Alamar Blue (10×) was added to all wells in a volume of 20 μl and plates were incubated for another 2 hours at […]
The fluorescence was read in a computer-controlled fluorometer (Cytofluor, Biosearch) at an excitation wavelength of 530 nm and an emission wavelength of 590 nm (gain 30). The percentage growth inhibition achieved by the compounds was calculated according to standard methods and expressed as IC90 (μg/ml) which defines the 90% inhibitory concentration for bacterial growth.

| Compound | IC90 MSM 607 |
| --- | --- |
| CS(=O)(=O)c1ccc2[nH]c(=O)c(C(c3ccc(Cl)cc3)C3(O)CCNC(Cc4ccc(F)cc4)C3)cc2c1 (stereo not drawn) [Compound 58] | >13.94 µg/mL |
| CS(=O)(=O)c1ccc2[nH]c(=O)c(C(c3ccc(Cl)cc3)C3(O)CCNC(Cc4ccc(F)cc4)C3)cc2c1 (stereo not drawn) [Compound 59] | 5.55 µg/mL (≈ 10 µM) |
| CCCN(C)CC1CC(O)(C(c2ccc(Cl)cc2)c2cc3cc(Cl)ccc3nc2OC)CCN1 (stereo not drawn) [Compound 64] | 3.98 µg/mL (≈ 7.92 µM) |
| COc1nc2ccc(Br)cc2cc1C(c1ccc(Cl)cc1)C1(O)CCNC(Cc2ccccc2)C1 (stereo not drawn) [Compound 77] | 4.36 µg/mL (≈ 7.9 µM) |
| CC1CC(O)(C(c2ccc(Cl)cc2)c2cc3cc(Br)ccc3[nH]c2=O)CCN1 (stereo not drawn) [Compound 132] | 9.21 µg/mL (≈ 19.9 µM) |

same assay, conditions: Mycolicibacterium smegmatis, ATCC607, 48 h, 90% inhibitory concentration for bacterial growth, Alamar Blue fluorescence, read-out: IC90 MSM 607

| Compound | IC90 |
| --- | --- |
| COc1nc2ccc(Br)cc2cc1C(n1cccn1)[C@@]1(O)CCN[C@H](Cc2ccccc2)C1 (stereo in doubt) [Compound 67] | 7.47 µg/mL (≈ 14.7 µM) |
| COc1nc2ccccc2cc1C(c1ccc(Cl)cc1)C1(O)CCNC(CO)C1 (stereo not drawn) [Compound 10] | > 10.4 µg/mL |
| COc1nc2ccccc2cc1C(c1ccccc1)C1(O)CCNC(c2ccc(F)cc2C)C1 (stereo not drawn) [Compound 16] | 9.08 µg/mL (≈ 19.9 µM) |
| COc1nc2ccc(Br)cc2cc1C(c1ccc(Cl)cc1)C1(O)CCN(C)C(Cc2ccccc2)C1 (stereo not drawn) [Compound 18] | 10 µg/mL (≈ 17.7 µM) |
| COc1nc2ccccc2cc1C(c1ccc(Cl)cc1)C1(O)CCNC(Cc2ccccc2)C1 (stereo not drawn) [Compound 19] | 3.76 µg/mL (≈ 7.95 µM) |
| COc1nc2ccc(Cl)cc2cc1C(c1ccc(Cl)cc1)C1(O)CCN(C(C)c2ccccc2)C(c2cccnc2)C1 (stereo not drawn) [Compound 22] | > 15 µg/mL |
| COc1nc2ccc(Br)cc2cc1C(c1ccc(Cl)cc1)C1(O)CCN(Cc2ccccc2)CC1C (stereo not drawn) [Compound 25] | > 19.9 µg/mL |
| COc1nc2ccccc2cc1C(c1ccc(Cl)cc1)C1(O)CCNC(c2cccnc2)C1 (stereo not drawn) [Compound 27] | 7.29 µg/mL (≈ 15.8 µM) |
| COc1nc2ccc(SC)cc2cc1C(c1cccc(Cl)c1)C1(O)CCNC(Cc2ccc(F)cc2F)C1 (stereo not drawn) [Compound 50] | 1.15 µg/mL (≈ 2.07 µM) |

system: Staphylococcus aureus (ATCC29213); assay: In-vitro anti-bacterial activity, microtitre plate assay, IC90 determination (non-mycobacterial strains); assay type: cell-based; settings: 90% inhibitory concentration for bacterial growth, 24 hours, resazurin fluorescence
Experimental: D.2. In-Vitro Method for Testing Compounds for Anti-Bacterial Activity Against Various Non-Mycobacterial Strains
Preparation of Bacterial Suspensions for Susceptibility Testing:
The bacteria used in this study were grown overnight in flasks containing 100 ml Mueller-Hinton Broth (Becton Dickinson—cat. no. 275730) in sterile de-ionized water, with shaking, at 37° C. Stocks (0.5 ml/tube) were stored at −70° C. until use. Bacteria titrations were performed in microtiter plates to detect the TCID50, in which TCID50 represents the dilution that gives rise to bacterial growth in 50% of inoculated cultures. In general, an inoculum level of approximately 100 TCID50 was used for susceptibility testing.
Anti Bacterial Susceptibility Testing: IC90 Determination
Flat-bottom, sterile 96-well plastic microtiter plates were filled with 180 μl of sterile deionized water, supplemented with 0.25% BSA. Subsequently, stock solutions (7.8× final test concentration) of compounds were added in 45 μl volumes in column 2 Serial five-fold dilutions (45 μl in 180 μl) were made directly in the microtiter plates from column 2 to reach column 11. Untreated control samples with (column 1) and without (column 12) inoculum were included in each microtiter plate. Depending on the bacteria type, approximately 10 to 60 CFU per well of bacteria inoculum (100 TCID50), in a volume of 100 μl in 2.8× Mueller-Hinton broth medium, was added to the rows A to H, except column 12. The same volume of broth medium without inoculum was added to column 12 in row A to H. The cultures were incubated at 37° C. for 24 hours under a normal atmosphere (incubator with open air valve and continuous ventilation). At the end of incubation, one day after inoculation, the bacterial growth was quantitated fluorometrically. Therefore resazurin (0.6 mg/ml) was added in a volume of 20 μl to all wells 3 hours after inoculation, and the plates were re-incubated overnight. A change in colour from blue to pink indicated the growth of bacteria. The fluorescence was read in a computer-controlled fluorometer (Cytofluor Biosearch) at an excitation wavelength of 530 nm and an emission wavelength of 590 nm. The % growth inhibition achieved by the compounds was calculated according to standard methods. The IC90 (expressed in μg/ml) was defined as the 90% inhibitory concentration for bacterial growth.

| Compound | IC90 STA B29213 |
| --- | --- |
| COc1nc2ccc(Br)cc2cc1C(c1ccc(Cl)cc1)C1(O)CCN(Cc2ccccc2)CC1C (stereo not drawn) [Compound 25] | >19.87 µg/mL |
| COc1nc2ccc(Br)cc2cc1C(c1ccc(Cl)cc1)C1(O)CCN(Cc2ccccc2)CC1C (stereo not drawn) [Compound 26] | >44.79 µg/mL |
| CS(=O)(=O)c1ccc2[nH]c(=O)c(C(c3ccc(Cl)cc3)C3(O)CCNC(Cc4ccc(F)cc4)C3)cc2c1 (stereo not drawn) [Compound 58] | >13.94 µg/mL |
| CS(=O)(=O)c1ccc2[nH]c(=O)c(C(c3ccc(Cl)cc3)C3(O)CCNC(Cc4ccc(F)cc4)C3)cc2c1 (stereo not drawn) [Compound 59] | 6.99 µg/mL (≈ 12.6 µM) |
| CCCN(C)CC1CC(O)(C(c2ccc(Cl)cc2)c2cc3cc(Cl)ccc3nc2OC)CCN1 (stereo not drawn) [Compound 64] | 7.93 µg/mL (≈ 15.8 µM) |
| COc1nc2ccc(Br)cc2cc1C(c1ccc(Cl)cc1)C1(O)CCNC(Cc2ccccc2)C1 (stereo not drawn) [Compound 77] | 5.49 µg/mL (≈ 9.95 µM) |
| COc1nc2ccc(F)cc2cc1C(c1ccc(Cl)cc1)C1(O)CCN(C(C)c2ccccc2)C(CO)C1 (stereo not drawn) [Compound 437] | 13.44 µg/mL (≈ 25.1 µM) |
| COc1nc2ccc(Cl)cc2cc1C(c1ccc(Cl)cc1)C1(O)CCNC(c2ccc3ccccc3c2)C1 (stereo not drawn) [Compound 440] | 8.61 µg/mL (≈ 15.8 µM) |
| COc1nc2ccc(Cl)cc2cc1C(c1ccc(Cl)cc1)C1(O)CCNC(c2ccc3ccccc3c2)C1 (stereo not drawn) [Compound 441] | 12.17 µg/mL (≈ 22.4 µM) |

same assay, conditions: Staphylococcus aureus, ATCC29213, 24 h, 90% inhibitory concentration for bacterial growth, resazurin fluorescence, read-out: IC90 STA B29213

| Compound | IC90 |
| --- | --- |
| COc1nc2ccc(Br)cc2cc1C(n1cccn1)[C@@]1(O)CCN[C@H](Cc2ccccc2)C1 (stereo in doubt) [Compound 67] | 14.9 µg/mL (≈ 29.4 µM) |
| COc1nc2ccccc2cc1C(c1ccc(Cl)cc1)C1(O)CCNC(CO)C1 (stereo not drawn) [Compound 10] | > 10.4 µg/mL |
| COc1nc2ccccc2cc1C(c1ccccc1)C1(O)CCNC(c2ccc(F)cc2C)C1 (stereo not drawn) [Compound 16] | 7.21 µg/mL (≈ 15.8 µM) |
| COc1nc2ccc(Br)cc2cc1C(c1ccc(Cl)cc1)C1(O)CCN(C)C(Cc2ccccc2)C1 (stereo not drawn) [Compound 18] | 20 µg/mL (≈ 35.3 µM) |
| COc1nc2ccccc2cc1C(c1ccc(Cl)cc1)C1(O)CCNC(Cc2ccccc2)C1 (stereo not drawn) [Compound 19] | 5.95 µg/mL (≈ 12.6 µM) |
| COc1nc2ccc(Cl)cc2cc1C(c1ccc(Cl)cc1)C1(O)CCN(C(C)c2ccccc2)C(c2cccnc2)C1 (stereo not drawn) [Compound 22] | > 15 µg/mL |
| COc1nc2ccccc2cc1C(c1ccc(Cl)cc1)C1(O)CCNC(c2cccnc2)C1 (stereo not drawn) [Compound 27] | 11.6 µg/mL (≈ 25.1 µM) |
| COc1nc2ccc(SC)cc2cc1C(c1cccc(Cl)c1)C1(O)CCNC(Cc2ccc(F)cc2F)C1 (stereo not drawn) [Compound 50] | 1.15 µg/mL (≈ 2.07 µM) |
| COc1nc2ccc(Br)cc2cc1C(c1ccccc1)C1(O)CCNC(Cc2ccccc2)C1 (stereo not drawn) [Compound 72] | 4.11 µg/mL (≈ 7.94 µM) |
| COc1nc2ccc(-c3cccnc3)cc2cc1C(c1ccc(Cl)cc1)C1(O)CCNC(Cc2ccccc2)C1 (stereo not drawn) [Compound 80] | 4.37 µg/mL (≈ 7.94 µM) |
